Experimental data taken from patent US6632962B2, “Caspase inhibitors and uses thereof” (Vertex Pharmaceuticals Incorporated, priority 1999, dated 2003).
Where a name gives a salt, the structure may show the parent alone.

What was measured:
[1] = target: T1, Caspase-9 (Homo sapiens, UniProt P55211); assay: Caspase-9 assay (fluorogenic substrate cleavage, kinact); assay type: biochemical; conditions: second order rate constant of inactivation; 0.00125 units/ml caspase-9, 50 μM AcDEVD-AMC, buffer with 8% glycerol
T1 construct: purchased Europa Bioproducts UBC2088
T1 sequence (P55211 1-315 limits assumed): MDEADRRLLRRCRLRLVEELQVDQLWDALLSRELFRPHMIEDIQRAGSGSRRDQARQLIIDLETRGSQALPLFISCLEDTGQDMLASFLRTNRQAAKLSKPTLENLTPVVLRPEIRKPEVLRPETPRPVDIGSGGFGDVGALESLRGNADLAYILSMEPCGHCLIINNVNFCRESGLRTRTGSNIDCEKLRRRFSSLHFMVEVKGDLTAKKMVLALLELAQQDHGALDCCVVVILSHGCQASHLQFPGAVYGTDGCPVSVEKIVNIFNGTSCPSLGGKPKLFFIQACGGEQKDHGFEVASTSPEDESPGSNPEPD
T1 sequence (P55211 331-416 limits assumed): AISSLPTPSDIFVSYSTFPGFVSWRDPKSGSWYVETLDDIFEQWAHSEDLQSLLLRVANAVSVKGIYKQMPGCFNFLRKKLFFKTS
Protocol: (§1) Assay Buffer: 10 mM Tris-HCI (Sigma T-3038), 1 mM dithiothreitol (DTT) (Calbiochem 233153), 0.1% CHAPS (Sigma C-3023), pH 7.5. Purified recombinant human Caspase-8. Substrate (acetyl-Asp-Glu-Val-Asp-amino-4-methyl coumarin, ACDEVD-AMC) (Bachem, I-1660). Serial dilution of test compound in DMSO (Sigma D-2650).
(§2) 70 microliters (μl) assay buffer, 20 μl of substrate and 5 μl of the inhibitor solution were added to the wells of a 96-well microtiter assay plate giving a final concentration of 1.5 nM caspase-8 and 10 μM substrate. The plate was incubated at 50° C. for 15 minutes in a thermostatically controlled plate warmer (Wesbart, UK). The reaction was then started by the addition of enzyme directly to the wells. The reaction was monitored continuously for 20 minutes in a fluorimeter (SPECTRAmax Gemini, Molecular Devices) at 37° C. by following the release of AMC fluorophor at an excitation wavelength of 390 nm and an emission wavelength of 460 nm. For each well, the observed rate of enzyme inactivation at a particular inhibitor concentration, kobs, was computed by direct fits of the data to the equation derived by Thornberry et al., (1994, Biochemistry 33, […]) using a non-linear least squares analysis computer program (PRISM 2.0, Graph Pad Software). To obtain the second order rate constant, kinact, kobs values were plotted against their respective inhibitor concentrations and kinact values were subsequently calculated by computerized linear regression.
Caspase-9 was purchased from Europa Bioproducts (order No UBC2088) and used with a concentration of 0.00125 units/ml (units defined by the manufacturer as amount of enzyme that cleaves 1 nmol of LEHD-pNA in 1 h at 37° C.). The assay was run as described for the caspase-8 assay except that the caspase-9 buffer additionally contained 8% glycerol (and the substrate concentration is 50 μM AcDEVD-AMC as opposed to 10 μM for caspase-8).

[2] = target: recombinant, purified human caspase-8 (Homo sapiens, UniProt Q14790); assay: Caspase-8 assay (fluorogenic substrate cleavage, kinact); assay type: biochemical; conditions: second order rate constant of inactivation; 1.5 nM caspase-8, 10 μM AcDEVD-AMC, 37° C.
Protocol: The assay for caspase-8 activity was based on the cleavage of a fluorogenic substrate by recombinant, purified human caspase-8 essentially according to the method described by Garcia-Calvo et al (1998) J. Biol. Chem. 273:32608-32613.
as §1, §2

[3] = system: Jurkat E6.1 cells; assay: Anti-Fas induced apoptosis assay (DNA fragmentation); assay type: cell-based; conditions: Homo sapiens, anti-Fas antibody CH-11 10 ng/ml, 16-18 hrs, DNA fragmentation OD405
Text: Cellular apoptosis may be induced by the binding of Fas ligand (FasL) to its receptor, CD95 (Fas). CD95 is one of a family of related receptors, known as death receptors, which can trigger apoptosis in cells via activation of the caspase enzyme cascade. The process is initiated by the binding of the adapter molecule FADD/MORT-1 to the cytoplasmic domain of the CD-95 receptor-ligand complex. Caspase-8 then binds FADD and becomes activated, initiating a cascade of events that involve the activation of downstream caspases and subsequent cellular apoptosis. Apoptosis can also be induced in cells expressing CD95 eg the Jurkat E6.1 T cell lymphoma cell line, using an antibody, rather than FasL, to crosslink the cell surface CD95. Anti-Fas-induced apoptosis is also triggered via the activation of caspase-8. This provides the basis of a cell-based assay to screen compounds for inhibition of the caspase-8-mediated apoptotic pathway.
Jurkat E6.1 cells are cultured in complete medium consisting of RPMI-1640 (Sigma No)+10% foetal calf serum (Gibco BRL No.10099-141)+2 mM L-glutamine (Sigma No. G-7513). The cells are harvested in log phase of growth. 100 ml Cells at 5-8×10^5 cells/ml are transferred to sterile 50 ml Falcon centrifuge tubes and centrifuged for 5 minutes at 100× g at room temperature. The supernatant is removed and the combined cell pellets resuspended in 25 ml of complete medium. The cells are counted and the density adjusted to 2×10^6 cells/ml with complete medium.
The test compound was dissolved in dimethyl sulfoxide (DMSO)(Sigma No. D-2650) to give a 100 mM stock solution. This was diluted to 400 μM in complete medium, then serially diluted in a 96-well plate prior to addition to the cell assay plate.
100-μl of the cell suspension ([…]) were added to each well of a sterile 96-well round-bottomed cluster plate (Costar No. 3790). 50 μl of compound solution at the appropriate dilution and 50 μl of anti-Fas antibody, clone CH-11 (Kamiya No.MC-060) at a final concentration of 10 ng/ml, were added to the wells. Control wells were set up minus antibody and minus compound but with a serial dilution of DMSO as vehicle control. The plates were incubated for 16-18 hrs at 37° C. in 5% CO2 and 95% humidity.
Apoptosis of the cells was measured by the quantitation of DNA fragmentation using a ‘Cell Death Detection Assay’ from Boehringer-Mannheim, No. 1544 675. After incubation for 16-18 hrs the assay plates were centrifuged at 100× g at room temperature for 5 minutes. 150 μl of the supernatant were removed and replaced by 150 μl of fresh complete medium. The cells were then harvested and 200 μl of the lysis buffer supplied in the assay kit were added to each well. The cells were triturated to ensure complete lysis and incubated for 30 minutes at 4° C. The plates were then centrifuged at 1900× g for 10 minutes and the supernatants diluted 1:20 in the incubation buffer provided. 100 μl of this solution were then assayed exactly according to the manufacturer's instructions supplied with the kit. OD405 nm were measured 20 minutes after addition of the final substrate in a SPECTRAmax Plus plate reader (molecular Devices). OD405 nm was plotted versus compound concentration and the IC50 values for the compounds were calculated using the curve-fitting program SOFTmax Pro (Molecular Devices) using the four parameter fit option.

recombinant, purified human caspase-8, sequence (Q14790 217-374 limits assumed): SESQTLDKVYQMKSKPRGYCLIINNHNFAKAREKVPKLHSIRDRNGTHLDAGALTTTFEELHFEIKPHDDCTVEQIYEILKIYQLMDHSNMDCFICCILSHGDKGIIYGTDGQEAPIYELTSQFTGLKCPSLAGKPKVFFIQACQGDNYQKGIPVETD
recombinant, purified human caspase-8, sequence (Q14790 385-479 limits assumed): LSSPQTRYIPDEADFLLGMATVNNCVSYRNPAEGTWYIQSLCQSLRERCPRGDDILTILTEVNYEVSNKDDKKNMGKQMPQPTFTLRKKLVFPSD

Compound	Kinact (1/M/s), Caspase-9 Activity [1]	Kinact (1/M/s), Caspase-8 Activity [2]	IC50 [3] [nM]
O=C(O)CC(NC(=O)c1ccsc1)C(=O)CF (centres unmarked) [Example 29, 5-Fluoro-4-oxo-3-(thienyl-3-carboxamido)-pentanoic Acid]	B (kinact less than 60,000)	–	–
O=C(O)CC(NC(=O)c1cccc(F)c1)C(=O)CF (centres unmarked) [Example 10, 5-Fluoro-3-(3-fluorobenzoylamino)-4-oxo-pentanoic Acid]	–	B (kinact between 40,000 and 60,000)	< 200
O=C(O)CC(NC(=O)c1ccc(C(F)(F)F)cc1)C(=O)CF (centres unmarked) [Example 13, 5-Fluoro-3-(4-trifluoromethylbenzoylamino)-4-oxo-pent anoic Acid]	–	C (kinact less than 40,000)	> 1000
O=C(O)CC(NC(=O)c1ccc(Cl)c(Cl)c1)C(=O)CF (centres unmarked) [Example 7, 3-(3,4-Dichlorobenzoylamino)-5-fluoro-4-oxo-pentanoic Acid]	–	B (kinact between 40,000 and 60,000)	200 to 1000
O=C(O)CC(NC(=O)c1ccccc1)C(=O)CF (centres unmarked) [Example 1, 3-Benzoylamino-5-fluoro-4-oxo-pentanoic Acid]	A (kinact (1/M/s) greater than 60,000)	A (kinact (1/M/s) greater than 60,000)	< 200
O=C(O)CC(NC(=O)c1cccs1)C(=O)CF (centres unmarked) [Example 28, 5-Fluoro-4-oxo-3-(thienyl-2-carboxamido)-pentanoic Acid]	–	C (kinact less than 40,000)	< 200
O=C(O)CC(NC(=O)c1cccnc1)C(=O)CF (centres unmarked) [Example 25, 5-Fluoro-4-oxo-3-(pyridyl-3-carboxamido)-pentanoic Acid Trifluoroacetate Salt]	–	B (kinact between 40,000 and 60,000)	< 200
O=C(O)CC(NC(=O)c1ccc(-c2ccccc2)o1)C(=O)CF (centres unmarked) [Example 34, 5-Fluoro-3-(5-phenyl-furyl-2-carboxamido)-4-oxo-pentanoic Acid]	–	A (kinact (1/M/s) greater than 60,000)	200 to 1000
O=C(O)CC(NC(=O)c1ccccc1Cl)C(=O)CF (centres unmarked) [Example 4, 3-(2-Chlorobenzoylamino)-5-fluoro-4-oxo-pentanoic Acid]	–	C (kinact less than 40,000)	< 200
O=C(O)CC(NC(=O)c1cccc2ccccc12)C(=O)CF (centres unmarked) [Example 22, 5-Fluoro-3-(naphthyl-1-carboxamido)-4-oxo-pentanoic acid]	–	B (kinact between 40,000 and 60,000)	< 200
O=C(O)CC(NC(=O)c1cccc(-c2ccccc2)c1)C(=O)CF (centres unmarked) [Example 14, 3-(Biphenyl-3-carboxamido)-5-fluoro-4-oxo-pentanoic Acid]	B (kinact less than 60,000)	–	–
COc1cccc(C(=O)NC(CC(=O)O)C(=O)CF)c1 (centres unmarked) [Example 16, 5-Fluoro-3-(3-methoxybenzoylamino)-4-oxo-pentanoic Acid]	–	B (kinact between 40,000 and 60,000)	< 200
O=C(O)CC(NC(=O)c1cc2ccccc2[nH]1)C(=O)CF (centres unmarked) [Example 31, 5-Fluoro-3-(1H-indolyl-2-carboxamido)-4-oxo-pentanoi c Acid]	–	C (kinact less than 40,000)	> 1000
N#Cc1cccc(C(=O)NC(CC(=O)O)C(=O)CF)c1 (centres unmarked) [Example 19, 3-(3-Cyanobenzoylamino)-5-fluoro-4-oxo-pentanoic Acid]	–	B (kinact between 40,000 and 60,000)	200 to 1000
O=C(O)CC(NC(=O)c1cccc(Oc2ccccc2)c1)C(=O)CF (centres unmarked) [Example 37, 5-Fluoro-4-oxo-3-(3-phenoxybenzoylamino)-pentanoic Acid]	–	A (kinact (1/M/s) greater than 60,000)	< 200
